The values that follow come from US8846103B2, “Exogenously triggered controlled release materials and uses thereof” (SmartCells, Inc., priority 2009, dated 2014).

For one data set, the target named is concanavalin A (Con A) (Canavalia ensiformis, UniProt P02866). The settings on record: higher affinity than glucose; cited from earlier work.
In the next data set the test system is non-diabetic SD rats. It counts as in vivo, Sprague Dawley (SD) rats. The method, then: FIG. 3: (a) Plot of (♦) serum insulin and (◯) blood glucose levels following subcutaneous injection in non-diabetic SD rats at time 0 with TSB-C4-AEBM-2-insulin/native Con A (an α-methyl mannose-responsive material). An i.p. injection of α-methyl mannose was administered at 120 min as indicated by the *.
0.300 ml of the formulation prepared in Example 1 was injected subcutaneously into each of three normal male Sprague Dawley (SD) rats (Charles River Laboratories, Wilmington, Mass.) weighing between 400 and 500 g. Prior to formulation injection, blood glucose values were measured via tail vein bleeding using a Precision Xtra glucometer (Abbott Laboratories, Alameda, Calif.) and approximately 100 ul of serum was obtained via tail vein bleeding to assay for background insulin levels. Food was removed from the rat cages during the duration of the study. Serum and blood glucose values were obtained at 30 min, 60 min, 90 min, and 120 min post-injection. At 120 min after the injection, an intraperitoneal injection of a 25% w/v α-methyl-mannose solution was injected to provide a 2 g/kg dose after which serum and blood glucose values were obtained at 135 min, 150 min, 180 min, 210 min, 240 min, and 300 min.

Consider `COC1O[C@H](CO)[C@@H](O)[C@H](O)[C@@H]1O` (stereo partly drawn) [α-methyl-mannose], for which the “affinity for Con A relative to endogenous glucose” value at concanavalin A (Con A) is listed as “about 40 fold”.
For the molecule “exemplary conjugate with two AEBM affinity ligands: Conjugate with TSB-C4 as the scaffold, AEBM as the affinity ligand, insulin (conjugated at Phe-B1) as the drug”, in the data set with non-diabetic SD rats (rat, in vivo, sc), the “conjugate release at physiologically normal blood glucose levels (background release)” value is “very little background release”. Also, the “response to exogenous α-methyl-mannose” value in the data set with non-diabetic SD rats (summary statement on Examples 1-2) is reported as “significant response”.
